# Values of other authors in article PMC7520419 (The AAPS Journal, 2020).
# Structures can show the parent of a compound that is named as a salt.
# Settings: Model 2; fasted; ref published clinical data (Table I); cited from earlier work
# Wherever Observed AUC(0-inf) Fasted is given: test concentration or dose not given here.
# Wherever Observed AUC(0-inf) Fed is given: test concentration or dose not given here.
# Wherever Observed Cmax Fasted is given: test concentration or dose not given here.
# Wherever Observed Cmax Fed is given: test concentration or dose not given here.
Compound,Observed AUC(0-inf) Fasted [ng·h/mL],Observed Cmax Fasted [ng/mL]
C#C[C@]1(O)CC[C@H]2[C@@H]3CCC4=Cc5oncc5C[C@]4(C)[C@H]3CC[C@@]21C [Danazol],231,37

# Same assay, conditions: Model 2; fed; ref published clinical data (Table I); cited from earlier work
Compound,Observed AUC(0-inf) Fed [ng·h/mL],Observed Cmax Fed [ng/mL]
C#C[C@]1(O)CC[C@H]2[C@@H]3CCC4=Cc5oncc5C[C@]4(C)[C@H]3CC[C@@]21C [Danazol],668,101

# Same assay, conditions: active metabolite measured; fed vs fasted; compiled by literature search; cited from earlier work
row,Compound,Food Effect
1,COC(=O)[C@H](c1ccccc1Cl)N1CCc2sccc2C1 [Clopidogrel bisulfate],None (none if no significant change in AUC and Cmax with food)

# Same assay, conditions: clinically observed PK change (AUC, Cmax) fed vs fasted; compiled by literature search; cited from earlier work
row,Compound,Food Effect
1,CCCCC(C)(O)C/C=C/[C@H]1[C@H](O)CC(=O)[C@@H]1CCCCCCC(=O)OC (mixture of isomers) [Misoprostol],None (none if no significant change in AUC and Cmax with food)
2,Nc1nc(NC2CC2)c2ncn([C@H]3C=C[C@@H](CO)C3)c2n1 [Abacavir sulfate],None (none if no significant change in AUC and Cmax with food)
3,COc1cc(C)c(/C=C/C(C)=C/C=C/C(C)=C/C(=O)O)c(C)c1C [Acitretin],Positive (positive if the ratio of fed > fasted)
4,CCCSc1ccc2nc(NC(=O)OC)[nH]c2c1 [Albendazole],Positive (positive if the ratio of fed > fasted)
5,COc1cc2nc(N(C)CCCNC(=O)C3CCCO3)nc(N)c2cc1OC (stereo not shown) [Alfuzosine],Positive (positive if the ratio of fed > fasted)
6,CCCCc1oc2ccccc2c1C(=O)c1cc(I)c(OCCN(CC)CC)c(I)c1 [Amiodarone],Positive (positive if the ratio of fed > fasted)
7,O=C1CCc2ccc(OCCCCN3CCN(c4cccc(Cl)c4Cl)CC3)cc2N1 [Aripiprazole],None (none if no significant change in AUC and Cmax with food)
8,CC(C)c1c(C(=O)Nc2ccccc2)c(-c2ccccc2)c(-c2ccc(F)cc2)n1CC[C@@H](O)C[C@@H](O)CC(=O)O [Atorvastatin],None (none if no significant change in AUC and Cmax with food)
9,O=C1C(O)=C([C@H]2CC[C@H](c3ccc(Cl)cc3)CC2)C(=O)c2ccccc21 [Atovaquone],Positive (positive if the ratio of fed > fasted)
10,CNC(=O)c1ccccc1Sc1ccc2c(/C=C/c3ccccn3)n[nH]c2c1 [Axitinib],None (none if no significant change in AUC and Cmax with food)
11,CC(O)(CS(=O)(=O)c1ccc(F)cc1)C(=O)Nc1ccc(C#N)c(C(F)(F)F)c1 (stereo not shown) [Bicalutamide],None (none if no significant change in AUC and Cmax with food)
12,CC(=O)N(CCC(CCN1CCCCC1)(C(N)=O)c1ccccc1Cl)C(C)C (stereo not shown) [Bidisomide],Negative (negative if ratio fasted > fed)
13,O=C1CN=C(c2ccccn2)c2cc(Br)ccc2N1 [Bromazepam],Negative (negative if ratio fasted > fed)
14,CC(C)C[C@H]1C(=O)N2CCC[C@H]2[C@]2(O)O[C@](NC(=O)[C@@H]3C=C4c5cccc6[nH]c(Br)c(c56)C[C@H]4N(C)C3)(C(C)C)C(=O)N12 [Bromocriptine],None (none if no significant change in AUC and Cmax with food)
15,COc1cc2nccc(Oc3ccc(NC(=O)C4(C(=O)Nc5ccc(F)cc5)CC4)cc3)c2cc1OC [Cabozantinib],Positive (positive if the ratio of fed > fasted)
16,CCCCCOC(=O)Nc1nc(=O)n([C@@H]2O[C@H](C)[C@@H](O)[C@H]2O)cc1F [Capecitabine],Negative (negative if ratio fasted > fed)
17,C=CC1=C(C(=O)O)N2C(=O)[C@@H](NC(=O)/C(=N\O)c3csc(N)n3)[C@H]2SC1 [Cefdinir],None (none if no significant change in AUC and Cmax with food)
18,CO/N=C(\C(=O)N[C@@H]1C(=O)N2C(C(=O)OCOC(=O)C(C)(C)C)=C(/C=C\c3scnc3C)CS[C@H]12)c1csc(N)n1 [Cefditoren pivoxil],Positive (positive if the ratio of fed > fasted)
19,Cc1ccc(-c2cc(C(F)(F)F)nn2-c2ccc(S(N)(=O)=O)cc2)cc1 [Celecoxib],Slightly positive
20,O=P(O)(O)C(Cl)(Cl)P(=O)(O)O [Clodronate],Negative (negative if ratio fasted > fed)
21,C[C@@H](Oc1cc(-c2cnn(C3CCNCC3)c2)cnc1N)c1c(Cl)ccc(F)c1Cl [Crizotinib],None (none if no significant change in AUC and Cmax with food)
22,O=c1[nH]cnc2c1ncn2[C@H]1CC[C@@H](CO)O1 [Didanosine],Negative (negative if ratio fasted > fed)
23,O=C1Nc2ccc(Cl)cc2[C@@](C#CC2CC2)(C(F)(F)F)O1 [Efavirenz],Positive (positive if the ratio of fed > fasted)
24,CCCCCCCNC(=O)Oc1ccc2c(c1)[C@]1(C)CCN(C)[C@@H]1N2C [Eptastigmine],Negative (negative if ratio fasted > fed)
25,C#Cc1cccc(Nc2ncnc3cc(OCCOC)c(OCCOC)cc23)c1 [Erlotinib],Positive (positive if the ratio of fed > fasted)
26,C#C[C@]1(O)CC[C@H]2[C@@H]3CCc4cc(O)ccc4[C@H]3CC[C@@]21C [Ethinyl estradiol],None (none if no significant change in AUC and Cmax with food)
27,CC(C)OC(=O)C(C)(C)Oc1ccc(C(=O)c2ccc(Cl)cc2)cc1 [Fenofibrate],Positive (positive if the ratio of fed > fasted)

row,Compound,Food Effect
1,CC(C)(C(=O)O)c1ccc(C(O)CCCN2CCC(C(O)(c3ccccc3)c3ccccc3)CC2)cc1 (stereo not shown) [Fexofenadine],Negative (negative if ratio fasted > fed)
2,CNCCC(Oc1ccc(C(F)(F)F)cc1)c1ccccc1 (stereo not shown) [Fluoxetine hydrochloride],None (none if no significant change in AUC and Cmax with food)
3,Nc1nc(O)c2ncn(COC(CO)CO)c2n1 [Ganciclovir],None (none if no significant change in AUC and Cmax with food)
4,NNc1nncc2ccccc12 [Hydralazine],Negative (negative if ratio fasted > fed)
5,NS(=O)(=O)c1cc2c(cc1Cl)NCNS2(=O)=O [Hydrochlorothiazide],None (none if no significant change in AUC and Cmax with food)
6,CC(C)Cn1cnc2c(N)nc3ccccc3c21 [Imiquimod],None (none if no significant change in AUC and Cmax with food)
7,CCCCC1=NC2(CCCC2)C(=O)N1Cc1ccc(-c2ccccc2-c2nnn[nH]2)cc1 [Irbesartan],None (none if no significant change in AUC and Cmax with food)
8,O=[N+]([O-])O[C@@H]1CO[C@H]2[C@@H]1OC[C@@H]2O [Isosorbide Mononitrite],None (none if no significant change in AUC and Cmax with food)
9,CC1=C(/C=C/C(C)=C/C=C/C(C)=C\C(=O)O)C(C)(C)CCC1 [Isotretinoin],Positive (positive if the ratio of fed > fasted)
10,Cc1c(OCC(F)(F)F)ccnc1C[S+]([O-])c1nc2ccccc2[nH]1 (stereo not shown) [Lansoprazole],None (none if no significant change in AUC and Cmax with food)
11,CS(=O)(=O)CCNCc1ccc(-c2ccc3ncnc(Nc4ccc(OCc5cccc(F)c5)c(Cl)c4)c3c2)o1 [Lapatinib],Positive (positive if the ratio of fed > fasted)
12,CN(C)C(=N)N=C(N)N [Metformin],None (none if no significant change in AUC and Cmax with food)
13,CCc1nn(CCCN2CCN(c3cccc(Cl)c3)CC2)c(=O)n1CCOc1ccccc1 [Nefazodone hydrochloride],Negative (negative if ratio fasted > fed)
14,CC1COc2c(N3CCN(C)CC3)c(F)cc3c(=O)c(C(=O)O)cn1c23 (stereo not shown) [Ofloxacin],None (Absorption delayed but extent not substantially affected) (none if no significant change in AUC and Cmax with food)
15,CCOC(=O)C1=C[C@@H](OC(CC)CC)[C@H](NC(C)=O)[C@@H](N)C1 [Oseltamavir],None (none if no significant change in AUC and Cmax with food)
16,CC[C@@H]([C@H](C)O)n1ncn(-c2ccc(N3CCN(c4ccc(OC[C@@H]5CO[C@@](Cn6cncn6)(c6ccc(F)cc6F)C5)cc4)CC3)cc2)c1=O [Posaconazole],Positive (positive if the ratio of fed > fasted)
17,CNC(=O)c1cc(Oc2ccc(NC(=O)Nc3ccc(Cl)c(C(F)(F)F)c3)c(F)c2)ccn1 [Regorafenib],Positive (positive if the ratio of fed > fasted)
18,NC(=O)c1ncn([C@@H]2O[C@H](CO)[C@@H](O)[C@H]2O)n1 [Ribavirin],Positive (positive if the ratio of fed > fasted)
19,CC(C)c1nc(CN(C)C(=O)N[C@H](C(=O)N[C@@H](Cc2ccccc2)C[C@H](O)[C@H](Cc2ccccc2)NC(=O)OCc2cncs2)C(C)C)cs1 [Ritonavir],None (none if no significant change in AUC and Cmax with food)
20,CS(=O)(=O)c1ccc(C2=C(c3ccccc3)C(=O)OC2)cc1 [Rofecoxib],None (none if no significant change in AUC and Cmax with food)
21,CC(C)c1nc(N(C)S(C)(=O)=O)nc(-c2ccc(F)cc2)c1/C=C/[C@@H](O)C[C@@H](O)CC(=O)O [Rosuvastatin],Negative (negative if ratio fasted > fed)
22,N#CC[C@H](C1CCCC1)n1cc(-c2ncnc3[nH]ccc23)cn1 [Ruxolitinib],None (none if no significant change in AUC and Cmax with food)
23,CC(C)(C)NC(=O)[C@@H]1C[C@@H]2CCCC[C@@H]2CN1C[C@@H](O)[C@H](Cc1ccccc1)NC(=O)[C@H](CC(N)=O)NC(=O)c1ccc2ccccc2n1 [Saquinavir],Positive (positive if the ratio of fed > fasted)
24,COc1cccc(CCc2ccccc2OCC(CN(C)C)OC(=O)CCC(=O)O)c1 (stereo not shown) [Sarpogrelate],Negative (negative if ratio fasted > fed)
25,CN[C@H]1CC[C@@H](c2ccc(Cl)c(Cl)c2)c2ccccc21 [Sertraline],None (none if no significant change in AUC and Cmax with food)
26,N[C@@H](CC(=O)N1CCn2c(nnc2C(F)(F)F)C1)Cc1cc(F)c(F)cc1F [Sitagliptin],None (none if no significant change in AUC and Cmax with food)
27,Cc1c(C(=O)Nc2ccc(N3C[C@@H](C)O[C@@H](C)C3)nc2)cccc1-c1ccc(OC(F)(F)F)cc1 [Sonidegib],Positive (positive if the ratio of fed > fasted)

# Same assay, conditions: prodrug measured; fed vs fasted; compiled by literature search; cited from earlier work
row,Compound,Food Effect
1,COC(=O)[C@H](c1ccccc1Cl)N1CCc2sccc2C1 [Clopidogrel bisulfate],Positive (positive if the ratio of fed > fasted)

# Same assay, conditions: ref drug label; cited from earlier work
row,Compound,food effect (FE) direction
1,NS(=O)(=O)c1cc(C(=O)O)c(NCc2ccco2)cc1Cl [Furosemide],negative FE
